US12018195B2, “Light-selective particles, related methods and related applications” (priority 2014, dated 2024)

System: macrophage cells
Description: Positive control includes only growth media (FIG. A).
Positive control includes only growth media.

CC(=O)[O-].CC(=O)[O-].[Zn+2] [Zn acetate]
cytotoxic effect on macrophage cells: toxic impact
